Laboratory results taken from ChEMBL document CHEMBL1201862, “PubChem BioAssay data set” (2004).
Calls of active or inactive are those of the source.

Experiments:
[1] = molecular target: Acyl-homoserine lactone acylase PvdQ (Pseudomonas aeruginosa (strain LESB58), UniProt Q9I194); assay: P. aeruginosa PvdQ acylase inhibitors, dose response, biochemical, fluorescence, plate reader and imaging, cherry-picks (AID 493231)
[2] = molecular target: Eukaryotic translation initiation factor 4H (Homo sapiens, UniProt Q15056); assay: human eIF4H binding inhibitors, primary screen, translation initiation inhibitor project, biochemical, uHTS, fluorescence polarization (AID 2012)
[3] = molecular target: T1, Carboxy-terminal domain RNA polymerase II polypeptide A small phosphatase 1 (Homo sapiens, UniProt Q9GZU7); assay: inhibitors of CTDSP1, concentration-response testing, biochemical assay, absorbance-based, actives from ultra-high-throughput screening (AID 540297); format: functional
T1 sequence (Q9GZU7 whole entry): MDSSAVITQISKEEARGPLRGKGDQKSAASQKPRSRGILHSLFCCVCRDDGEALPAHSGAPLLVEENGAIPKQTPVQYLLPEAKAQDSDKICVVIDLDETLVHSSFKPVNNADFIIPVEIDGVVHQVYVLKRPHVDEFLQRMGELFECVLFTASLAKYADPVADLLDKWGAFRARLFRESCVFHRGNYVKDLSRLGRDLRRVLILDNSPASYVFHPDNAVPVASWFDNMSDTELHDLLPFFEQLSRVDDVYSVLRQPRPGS

[4] = molecular target: Polyadenylate-binding protein 1 (Homo sapiens, UniProt P11940); assay: PABP poly(A) RNA binding inhibitors, primary screen, biochemical, fluorescence polarization, uHTS (AID 2014)
Bcl-2-like protein 10 = Bcl-2-like protein 10 (Homo sapiens, UniProt Q9HD36); assay: displacers of TR3 peptide from Bcl-B, primary screen, selectivity assay for Bfl-1 inhibitor project, biochemical, fluorescence polarization, FITC-TR3 peptide (AID 748);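 further: fluorescence polarization from a fluorescein-labelled TR3 peptide binding purified Bcl-B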
SUMO-activating enzyme [5] = molecular target: T2, SUMO-activating enzyme (Homo sapiens, UniProt Q9UBT2); assay: inhibitors of in vitro SUMOylation cascade, primary screen, biochemical, HTRF, uHTS (AID 2006); format: protein-complex assay
SUMO-activating enzyme [6] = molecular target: T2, SUMO-activating enzyme; assay: SUMOylation inhibitor hit validation, confirmation, SUMOylation inhibitor project, biochemical, AlphaScreen (AID 2018); format: functional
Coagulation factor XII = molecular target: T3, Coagulation factor XII (Homo sapiens, UniProt P00748); format: functional;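 further: activated factor XIIa alpha cleaving a fluorogenic AMC peptide substrate; inhibitor potency from loss of enzyme activity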
T3 sequence (P00748 whole entry): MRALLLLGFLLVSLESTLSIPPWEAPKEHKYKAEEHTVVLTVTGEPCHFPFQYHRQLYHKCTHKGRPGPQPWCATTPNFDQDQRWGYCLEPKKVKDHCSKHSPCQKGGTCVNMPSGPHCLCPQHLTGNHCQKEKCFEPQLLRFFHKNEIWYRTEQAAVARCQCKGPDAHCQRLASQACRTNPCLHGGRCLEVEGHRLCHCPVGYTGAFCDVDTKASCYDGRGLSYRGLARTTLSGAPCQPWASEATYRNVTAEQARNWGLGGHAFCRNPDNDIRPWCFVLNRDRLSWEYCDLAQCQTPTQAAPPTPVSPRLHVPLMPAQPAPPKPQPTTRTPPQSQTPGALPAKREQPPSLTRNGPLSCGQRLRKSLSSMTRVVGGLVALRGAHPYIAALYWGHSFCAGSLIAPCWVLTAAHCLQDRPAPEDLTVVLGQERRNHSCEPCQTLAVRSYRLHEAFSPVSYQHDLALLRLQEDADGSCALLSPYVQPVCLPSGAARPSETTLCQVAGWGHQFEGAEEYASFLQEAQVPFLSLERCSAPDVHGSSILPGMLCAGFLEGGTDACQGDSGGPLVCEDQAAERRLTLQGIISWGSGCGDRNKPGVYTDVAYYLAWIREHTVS

[7] = cytotoxicity in HEK-293T cells, dose response, cytotoxicity control for TCR NF-kB inhibitor project, luminescence, T-cell screen hits (AID 489026); format: functional, cell-based;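 further: cells exposed to compound about 14 hours before the viability readout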
[8] = Luminescence Cell-Based Dose Response HTS to Identify Inhibitors of 5'UTR Stem-Loop Driven Prion Protein mRNA Translation in H4 Neuroglioblastoma Cells. [Related pubchem assays: 1827 (Project Summary), 1813 (Primary HTS)]; format: functional
INS1 = assay: beta cell apoptosis inhibitors, cytokine rescue, dose response, luminescence, retest (AID 449756); format: functional, cell-based; conditions: Rattus norvegicus;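 further: cell death triggered by IL-1 beta plus TNF-alpha plus IFN-gamma mixture; protective hits raise ATP signal compared with cytokine alone wells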
[9] = inhibitors of firefly luciferase expression or activity, dose response, H4 neuroglioma cells, luminescence (AID 1990); format: functional, cell-based
[10] = THP-1 cell cytotoxicity, dose response, cytotoxicity control for non-replicating M. tuberculosis project (AID 489025); format: functional
[11] = NIH-3T3 fibroblast cytotoxicity, dose response, cytotoxicity control, cell-based, fluorescence, Alamar Blue, secondary assay (AID 2327); format: functional;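 further: NIH-3T3 mouse fibroblasts cultured with fluconazole at 8 µg/mL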
[12] = C. albicans growth with fluconazole, confirmation, fluorescence, retest (AID 2467); format: functional, cell-based
[13] = inhibitors of SNCA 5'UTR-driven reporter translation, confirmation, H4 neuroglioma cells, luminescence (AID 1988); format: functional, cell-based
[14] = Vero E6 cell cytotoxicity, dose response, cytotoxicity control for non-replicating M. tuberculosis project, secondary assay (AID 492998); format: functional, VeroE6; conditions: Vero C1008
[15] = HepG2 cell cytotoxicity, dose response, cytotoxicity control for non-replicating M. tuberculosis project (AID 489018); format: functional; conditions: Mycobacterium tuberculosis
Escherichia coli = assay: microbe, parasite or virus in culture
[16] = cytotoxicity toward NIH3T3 fibroblasts, dose response, counter-screen, cell-based, ATP luminescence, mouse fibroblasts (AID 2010); format: functional;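 further: cells exposed to compound for about 90 hours before reading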
[17] = molecular target: T4, Microphthalmia-associated transcription factor (Homo sapiens, UniProt O75030); assay: TRPM1 promoter luciferase signal decrease, dose response, MITF inhibitor project, cell-based, SK-MEL-5, cherry-picked, set 3 (AID 493073); format: functional
T4 sequence (O75030 whole entry): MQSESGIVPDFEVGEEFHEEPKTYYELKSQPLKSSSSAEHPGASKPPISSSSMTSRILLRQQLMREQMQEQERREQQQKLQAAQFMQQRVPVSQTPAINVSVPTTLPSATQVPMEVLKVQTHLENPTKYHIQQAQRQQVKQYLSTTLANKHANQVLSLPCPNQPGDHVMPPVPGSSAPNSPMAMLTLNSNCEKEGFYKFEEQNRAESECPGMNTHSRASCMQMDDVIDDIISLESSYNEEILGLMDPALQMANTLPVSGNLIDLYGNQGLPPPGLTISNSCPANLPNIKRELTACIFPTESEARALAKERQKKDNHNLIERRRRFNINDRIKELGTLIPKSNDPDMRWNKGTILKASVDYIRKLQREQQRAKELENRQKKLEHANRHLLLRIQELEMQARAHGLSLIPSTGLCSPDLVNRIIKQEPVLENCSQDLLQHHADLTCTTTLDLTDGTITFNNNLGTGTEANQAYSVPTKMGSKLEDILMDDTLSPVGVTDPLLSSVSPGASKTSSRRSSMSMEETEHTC

[18] = inhibitors of intracellular T. cruzi replication, confirmation, NIH3T3 host cells, beta-gal luminescence (AID 2044); format: functional, cell-based;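 further: intracellular parasites grown in NIH/3T3 mouse fibroblasts as host cells; luminescent beta-galactosidase reporter signal from transgenic T. cruzi replicating inside host cells; inhibitors lower the luminescence signal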
cells = format: functional
[19] = molecular target: T5, Eukaryotic translation initiation factor 2-alpha kinase 3 (Homo sapiens, UniProt Q9NZJ5); assay: Counterscreen assay for PERK inhibitors: Dose response cell-based high throughput screening assay to measure inhibition of PERK at 6 hours. [Related pubchem assays: 1522, 1416 ]; format: functional
T5 sequence (Q9NZJ5 whole entry): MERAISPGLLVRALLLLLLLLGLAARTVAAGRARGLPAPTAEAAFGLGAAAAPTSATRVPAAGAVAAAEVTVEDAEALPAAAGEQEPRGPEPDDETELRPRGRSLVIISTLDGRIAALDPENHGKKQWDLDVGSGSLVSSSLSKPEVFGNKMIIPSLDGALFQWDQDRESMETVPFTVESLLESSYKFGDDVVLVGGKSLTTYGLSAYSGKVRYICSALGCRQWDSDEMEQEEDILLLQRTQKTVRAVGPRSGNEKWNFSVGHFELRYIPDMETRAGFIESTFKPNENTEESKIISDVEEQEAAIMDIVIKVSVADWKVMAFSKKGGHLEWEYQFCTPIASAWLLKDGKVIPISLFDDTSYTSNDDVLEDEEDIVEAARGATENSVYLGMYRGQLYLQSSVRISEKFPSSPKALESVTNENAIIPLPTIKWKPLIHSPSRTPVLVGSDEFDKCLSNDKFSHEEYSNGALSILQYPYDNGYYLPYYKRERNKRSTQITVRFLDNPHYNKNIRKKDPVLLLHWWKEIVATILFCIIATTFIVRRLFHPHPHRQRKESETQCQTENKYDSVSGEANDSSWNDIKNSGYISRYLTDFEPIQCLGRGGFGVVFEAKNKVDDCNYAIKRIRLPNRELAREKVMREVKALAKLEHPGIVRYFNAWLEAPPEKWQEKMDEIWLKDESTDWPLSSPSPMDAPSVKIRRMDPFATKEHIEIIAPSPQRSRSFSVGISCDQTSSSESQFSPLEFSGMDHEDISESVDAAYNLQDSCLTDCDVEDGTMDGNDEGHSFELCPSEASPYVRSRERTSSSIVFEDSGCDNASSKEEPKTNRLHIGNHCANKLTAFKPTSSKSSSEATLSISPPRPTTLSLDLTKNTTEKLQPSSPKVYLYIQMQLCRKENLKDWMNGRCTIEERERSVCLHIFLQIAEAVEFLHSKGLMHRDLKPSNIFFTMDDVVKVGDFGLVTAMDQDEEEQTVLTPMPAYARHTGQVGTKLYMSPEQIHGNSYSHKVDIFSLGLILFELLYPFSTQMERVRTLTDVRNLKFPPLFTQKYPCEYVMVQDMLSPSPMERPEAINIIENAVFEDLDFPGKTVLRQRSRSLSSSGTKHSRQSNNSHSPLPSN

[20] = molecular target: T5, Eukaryotic translation initiation factor 2-alpha kinase 3; assay: Dose response cell-based high-throughput screening assay to measure PERK inhibition. [Related pubchem assays: 1416 ]; format: functional
[21] = molecular target: T6, Heat shock factor protein 1 (Mus musculus, UniProt P38532); assay: inhibition of MG132-induced HSE-luciferase signal, confirmation, cell-based, NIH3T3, luminescence, dose retest (AID 2382); format: functional;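 further: NIH3T3 fibroblasts with HSF1-driven luciferase reporter stressed by proteasome inhibitor MG132; luminescence from HSF1-driven luciferase expression after 8 hours of MG132 stress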
T6 sequence (P38532 whole entry): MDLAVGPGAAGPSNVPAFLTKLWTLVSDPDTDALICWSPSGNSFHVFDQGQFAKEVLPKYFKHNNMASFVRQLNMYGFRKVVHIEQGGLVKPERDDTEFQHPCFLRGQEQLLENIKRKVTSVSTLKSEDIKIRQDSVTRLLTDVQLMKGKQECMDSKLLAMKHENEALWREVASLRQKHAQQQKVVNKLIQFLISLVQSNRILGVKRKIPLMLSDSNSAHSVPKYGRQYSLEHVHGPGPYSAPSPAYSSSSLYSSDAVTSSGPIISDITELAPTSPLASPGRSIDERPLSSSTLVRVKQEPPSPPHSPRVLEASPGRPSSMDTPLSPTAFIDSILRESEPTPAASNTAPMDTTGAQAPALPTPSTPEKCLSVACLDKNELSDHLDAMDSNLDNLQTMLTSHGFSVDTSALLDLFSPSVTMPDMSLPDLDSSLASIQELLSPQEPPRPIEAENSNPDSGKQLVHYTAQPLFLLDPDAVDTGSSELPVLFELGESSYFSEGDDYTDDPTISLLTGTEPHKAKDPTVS

Bcl-2-like protein 10, sequence (Q9HD36 whole entry): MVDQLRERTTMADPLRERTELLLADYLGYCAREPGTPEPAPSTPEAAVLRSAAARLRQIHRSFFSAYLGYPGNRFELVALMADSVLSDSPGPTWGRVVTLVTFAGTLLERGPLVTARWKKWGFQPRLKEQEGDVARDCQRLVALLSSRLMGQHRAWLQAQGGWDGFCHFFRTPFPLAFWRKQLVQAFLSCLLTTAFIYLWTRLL
Acyl-homoserine lactone acylase PvdQ, sequence (Q9I194 24-193 limits assumed): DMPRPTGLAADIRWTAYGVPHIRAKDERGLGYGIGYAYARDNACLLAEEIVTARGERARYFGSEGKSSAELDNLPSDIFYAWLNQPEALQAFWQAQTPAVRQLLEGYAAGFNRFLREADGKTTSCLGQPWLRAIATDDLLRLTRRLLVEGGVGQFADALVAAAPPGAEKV
Acyl-homoserine lactone acylase PvdQ, sequence (Q9I194 217-762 limits assumed): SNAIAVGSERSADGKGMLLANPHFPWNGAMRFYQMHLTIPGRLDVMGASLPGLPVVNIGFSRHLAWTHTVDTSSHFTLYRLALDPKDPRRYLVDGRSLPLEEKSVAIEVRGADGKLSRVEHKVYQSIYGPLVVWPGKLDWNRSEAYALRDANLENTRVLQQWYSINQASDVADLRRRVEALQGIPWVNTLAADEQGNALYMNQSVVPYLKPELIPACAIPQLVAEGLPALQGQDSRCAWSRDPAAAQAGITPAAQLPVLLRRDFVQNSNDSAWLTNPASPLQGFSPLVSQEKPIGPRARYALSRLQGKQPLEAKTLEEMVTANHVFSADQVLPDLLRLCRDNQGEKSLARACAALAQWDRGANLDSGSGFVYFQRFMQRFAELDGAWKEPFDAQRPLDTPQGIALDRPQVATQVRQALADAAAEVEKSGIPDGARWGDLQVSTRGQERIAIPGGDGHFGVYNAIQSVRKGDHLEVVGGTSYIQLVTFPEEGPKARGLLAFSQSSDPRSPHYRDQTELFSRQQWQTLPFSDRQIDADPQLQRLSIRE
Polyadenylate-binding protein 1, sequence (P11940 whole entry): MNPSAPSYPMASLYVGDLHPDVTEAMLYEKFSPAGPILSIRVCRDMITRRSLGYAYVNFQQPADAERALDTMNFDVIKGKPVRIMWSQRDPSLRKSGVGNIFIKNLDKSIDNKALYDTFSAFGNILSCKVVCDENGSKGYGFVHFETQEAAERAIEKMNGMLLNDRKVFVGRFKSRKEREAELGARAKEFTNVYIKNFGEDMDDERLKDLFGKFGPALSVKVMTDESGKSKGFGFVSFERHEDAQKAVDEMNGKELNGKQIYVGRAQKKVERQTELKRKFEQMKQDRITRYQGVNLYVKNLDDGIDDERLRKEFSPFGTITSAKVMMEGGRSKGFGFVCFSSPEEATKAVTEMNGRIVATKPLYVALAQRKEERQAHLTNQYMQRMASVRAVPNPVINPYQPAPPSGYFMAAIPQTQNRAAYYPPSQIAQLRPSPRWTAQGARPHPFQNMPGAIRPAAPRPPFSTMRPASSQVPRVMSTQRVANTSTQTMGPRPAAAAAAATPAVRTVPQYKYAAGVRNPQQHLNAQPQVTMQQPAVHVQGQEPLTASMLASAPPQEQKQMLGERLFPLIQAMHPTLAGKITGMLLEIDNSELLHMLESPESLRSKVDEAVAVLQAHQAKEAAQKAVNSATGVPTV
T2 sequence (Q9UBE0 whole entry): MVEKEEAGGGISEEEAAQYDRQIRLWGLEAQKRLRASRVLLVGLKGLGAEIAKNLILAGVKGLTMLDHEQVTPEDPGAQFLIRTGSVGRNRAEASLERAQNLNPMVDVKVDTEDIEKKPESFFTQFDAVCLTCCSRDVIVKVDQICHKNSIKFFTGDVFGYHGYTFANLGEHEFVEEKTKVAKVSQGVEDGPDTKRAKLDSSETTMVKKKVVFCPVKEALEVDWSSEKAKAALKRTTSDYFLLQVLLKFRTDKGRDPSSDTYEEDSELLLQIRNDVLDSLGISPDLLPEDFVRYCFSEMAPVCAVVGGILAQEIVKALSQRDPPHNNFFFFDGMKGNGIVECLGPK
T2 sequence (Q9UBT2 whole entry): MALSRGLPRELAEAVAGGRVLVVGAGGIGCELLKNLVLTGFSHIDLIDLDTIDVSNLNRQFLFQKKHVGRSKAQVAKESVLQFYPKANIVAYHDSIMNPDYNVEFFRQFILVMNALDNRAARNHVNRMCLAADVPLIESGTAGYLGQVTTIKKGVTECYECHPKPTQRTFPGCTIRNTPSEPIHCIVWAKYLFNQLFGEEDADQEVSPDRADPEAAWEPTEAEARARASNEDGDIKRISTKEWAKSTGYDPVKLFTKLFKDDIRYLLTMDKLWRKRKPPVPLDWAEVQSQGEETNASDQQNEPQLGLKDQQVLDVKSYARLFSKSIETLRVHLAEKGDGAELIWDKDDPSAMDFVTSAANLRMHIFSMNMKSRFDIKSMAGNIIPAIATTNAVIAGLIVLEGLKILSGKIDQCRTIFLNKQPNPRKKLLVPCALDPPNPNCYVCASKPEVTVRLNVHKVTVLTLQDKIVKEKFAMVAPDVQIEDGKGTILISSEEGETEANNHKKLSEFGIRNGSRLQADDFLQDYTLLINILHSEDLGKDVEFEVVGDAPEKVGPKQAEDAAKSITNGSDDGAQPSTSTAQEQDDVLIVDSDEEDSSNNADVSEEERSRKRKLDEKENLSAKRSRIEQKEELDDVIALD

## C[C@]12CCC[C@H](O1)[C@H]([C@@H](O)c1ccccc1)O2
[1]
  AC50: 54 µM (active)

## C[N+]1(CC2COC3(CCCCC3)O2)CCCCC1 (centres undefined)
[2]
  IC50: > 100 µM (inactive)
[3]
  IC50: 8.39 µM (active)
[4]
  IC50: 6.05 µM (active)

## CN(C)c1cccc(C(=O)OCc2cc(=O)oc3cc(O)ccc23)c1
Bcl-2-like protein 10
  IC50: 62.4 µM (inactive)
SUMO-activating enzyme [5]
  IC50: 22.6 µM (active)
SUMO-activating enzyme [6]
  IC50: 5.73 µM (active)

## Cc1ccc(S(=O)(=O)NCC(=O)OCC(=O)Nc2ncc(Cl)cc2Cl)cc1
Bcl-2-like protein 10
  IC50: 71.1 µM (inactive)
Coagulation factor XII
  IC50: > 50 µM (inactive)

## CCCCCCCCCCn1ccc(=N)cc1
[7]
  IC50: > 80 µM (inactive)
[8]
  EC50: 8.51 µM (active)
INS1
  AC50: 0.471 µM (active)
[9]
  EC50: 10.3 µM (active)
[10]
  CC50: 1.57 µM (active)
[11]
  EC50: 22.5 µM (active)
[12]
  EC50: 0.055 µM (active)
[13]
  EC50: 8.93 µM (active)
[14]
  CC50: 11.4 µM (active)
[15]
  CC50: 7.25 µM (active)

## O=C(N=Nc1c(O)[nH]c2ccccc12)c1cc(-c2cccs2)[nH]n1
[2]
  IC50: 11.5 µM (active)
[4]
  IC50: 28.8 µM (active)

## N#CC(c1ccc(F)cc1)c1ccc(C(=O)c2ccccc2)cc1 (centres undefined)
[1]
  AC50: > 100 µM (inactive)

## O=[N+]([O-])c1ccc(/C=N/n2c(CO)nc3ccccc32)s1
Escherichia coli
  AC50: 121 µM (active)
INS1
  AC50: 4.91 µM (active)
[16]
  EC50: 42 µM (active)
[17]
  AC50: 1.97 µM (active)
[10]
  CC50: 32.4 µM (active)
[18]
  EC50: 0.568 µM (active)
[14]
  CC50: 14.7 µM (active)
cells
  IC50: 1.51 µM (active)
[15]
  CC50: > 20 µM (active)

## Cc1ccccc1CO/N=C/c1[nH]ncc1Br
[19]
  EC50: > 55.7 µM (not active)
[20]
  EC50: > 55.7 µM (not active)
[21]
  EC50: > 195 µM (not active)
